Results reported in ChEMBL document CHEMBL4376843 (J Med Chem, 2020).
pIC50, pKi: −log10 of the molar value.

Experiments:
Carbonic anhydrase 4 = Carbonic anhydrase 4 (Homo sapiens, UniProt P22748)
PC-3 [1] = assay: cells; format: functional, cell-based; settings: Homo sapiens, PC-3, 72 h
Description: Antiproliferative activity against human PC3 cells measured after 72 hrs under CoCl2-induced hypoxic condition by MTT assay

HCT-116 [2] = assay: cells; format: functional, cell-based; settings: Homo sapiens, HCT-116, 72 h
Description: Antiproliferative activity against human HCT116 cells measured after 72 hrs under CoCl2-induced hypoxic condition by MTT assay

Carbonic anhydrase 7 = Carbonic anhydrase 7 (Homo sapiens, UniProt P43166)
A549 [3] = assay: cells; format: functional, cell-based; settings: Homo sapiens, A549, 72 h
Description: Antiproliferative activity against human A549 cells measured after 72 hrs under CoCl2-induced hypoxic condition by MTT assay

Carbonic anhydrase 9 = Carbonic anhydrase 9 (Homo sapiens, UniProt Q16790)
A549 [4] = assay: cells; format: functional, cell-based; settings: Homo sapiens, A549, 72 h; remark: listed apart in the source
Description: Antiproliferative activity against human A549 cells measured after 72 hrs under normoxic condition by MTT assay

Carbonic anhydrase 1 = Carbonic anhydrase 1 (Homo sapiens, UniProt P00915)
Chain of Carbonic anhydrase 1 (P00915 whole entry): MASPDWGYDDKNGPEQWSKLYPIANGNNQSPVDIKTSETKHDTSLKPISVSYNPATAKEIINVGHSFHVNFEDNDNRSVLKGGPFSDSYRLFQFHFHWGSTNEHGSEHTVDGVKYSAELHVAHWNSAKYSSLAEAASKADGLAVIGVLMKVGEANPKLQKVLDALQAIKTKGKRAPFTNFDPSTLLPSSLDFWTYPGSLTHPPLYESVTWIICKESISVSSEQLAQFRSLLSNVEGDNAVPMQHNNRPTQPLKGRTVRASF

WI-38 = assay: Cytotoxicty activity against human WI38 cells measured after 72 hrs by MTT assay; format: cell-based; settings: WI-38, 72 h
HCT-116 [5] = assay: cells; format: functional, cell-based; settings: Homo sapiens, HCT-116, 72 h; remark: listed apart in the source
Description: Antiproliferative activity against human HCT116 cells measured after 72 hrs under normoxic condition by MTT assay

Carbonic anhydrase 2 = Carbonic anhydrase 2 (Homo sapiens, UniProt P00918)
PC-3 [6] = assay: cells; format: functional, cell-based; settings: Homo sapiens, PC-3, 72 h; remark: listed apart in the source
Description: Antiproliferative activity against human PC3 cells measured after 72 hrs under normoxic condition by MTT assay

HCT-116 [7] = assay: Induction of apoptosis in human HCT116 cells assessed as downregulation of Bcl-2 expression at normoxic antiproliferative IC50 measured after 48 hrs by ELISA relative to control; format: functional

Chain of Carbonic anhydrase 4 (P22748 whole entry): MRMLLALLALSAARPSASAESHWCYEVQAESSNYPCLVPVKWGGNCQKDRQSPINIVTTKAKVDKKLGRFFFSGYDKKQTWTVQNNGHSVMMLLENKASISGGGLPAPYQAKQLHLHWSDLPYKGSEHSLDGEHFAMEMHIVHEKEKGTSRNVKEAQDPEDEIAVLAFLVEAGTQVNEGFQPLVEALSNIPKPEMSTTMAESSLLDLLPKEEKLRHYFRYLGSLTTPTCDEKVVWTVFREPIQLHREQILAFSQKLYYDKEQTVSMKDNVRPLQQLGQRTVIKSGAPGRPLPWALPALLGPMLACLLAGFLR
Chain of Carbonic anhydrase 7 (P43166 whole entry): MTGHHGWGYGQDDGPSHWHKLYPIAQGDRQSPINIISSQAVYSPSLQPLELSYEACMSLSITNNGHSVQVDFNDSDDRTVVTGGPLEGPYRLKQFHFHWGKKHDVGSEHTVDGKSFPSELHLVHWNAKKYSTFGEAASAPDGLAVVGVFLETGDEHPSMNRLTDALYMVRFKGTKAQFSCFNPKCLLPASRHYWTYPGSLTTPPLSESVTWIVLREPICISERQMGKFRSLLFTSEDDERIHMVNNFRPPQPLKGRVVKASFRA

Question: With `Cc1cc(C)c2c(c1)S(=O)(=O)NC(=O)N2` as the compound, how does the pKi (Carbonic anhydrase 4) read?
Answer: 5.79

Question: What about the pIC50 (PC-3 [1]) of the same compound?
Answer: 6.09

Question: And the pIC50 (HCT-116 [2])?
Answer: 5.38

Question: And the pKi (Carbonic anhydrase 7)?
Answer: 6.16

Question: What about the pIC50 (A549 [3]) of the same compound?
Answer: 5.24

Question: What about the pKi (Carbonic anhydrase 9) of the same compound?
Answer: 7.59

Question: And the pIC50 (A549 [4])?
Answer: 5.32

Question: What about the pKi (Carbonic anhydrase 1) of the same compound?
Answer: 5.89

Question: What about the pIC50 (WI-38) of the same compound?
Answer: 4.63

Question: And the pIC50 (HCT-116 [5])?
Answer: 5.41

Question: And the pKi (Carbonic anhydrase 2)?
Answer: 6.12

Question: What about the pIC50 (PC-3 [6]) of the same compound?
Answer: 5.20

Question: How did the pKi (Carbonic anhydrase 4) turn out when `COc1ccc2c(c1)S(=O)(=O)NC(=O)N2` was run?
Answer: 5.71

Question: What about the pKi (Carbonic anhydrase 7) of the same compound?
Answer: 5.87

Question: And the pKi (Carbonic anhydrase 9)?
Answer: 7.45

Question: And the pKi (Carbonic anhydrase 1)?
Answer: 5.42

Question: And the pKi (Carbonic anhydrase 2)?
Answer: 5.72

Question: What does the source list for `O=C1Nc2ccccc2S(=O)(=O)N1`?
Answer: pKi (Carbonic anhydrase 4): 6.17; pIC50 (PC-3 [1]): 4.91; pIC50 (HCT-116 [2]): 5.82; pKi (Carbonic anhydrase 7): 6.33; pIC50 (A549 [3]): 5.57; pKi (Carbonic anhydrase 9): 7.10; pIC50 (A549 [4]): 5.45; pKi (Carbonic anhydrase 1): 6.06; pIC50 (WI-38): 4.40; pIC50 (HCT-116 [5]): 5.89; pKi (Carbonic anhydrase 2): 6.82; pIC50 (PC-3 [6]): 4.86; Activity (HCT-116 [7]): 59%

Question: `O=C1NS(=O)(=O)c2cccc3c2N1CC3` was tested. Which pKi (Carbonic anhydrase 4) did it give?
Answer: 5.41

Question: What about the pKi (Carbonic anhydrase 7) of the same compound?
Answer: 5.89

Question: And the pKi (Carbonic anhydrase 9)?
Answer: 6.56

Question: What about the pKi (Carbonic anhydrase 1) of the same compound?
Answer: 5.16

Question: And the pKi (Carbonic anhydrase 2)?
Answer: 5.97

Question: `O=C1Nc2ccc(Br)cc2S(=O)(=O)N1` was tested. Which pKi (Carbonic anhydrase 4) did it give?
Answer: 5.81

Question: What about the pKi (Carbonic anhydrase 7) of the same compound?
Answer: 6.33

Question: What about the pKi (Carbonic anhydrase 9) of the same compound?
Answer: 7.51

Question: What about the pKi (Carbonic anhydrase 1) of the same compound?
Answer: 5.36

Question: And the pKi (Carbonic anhydrase 2)?
Answer: 5.63

Question: `Cc1ccc(C)c2c1NC(=O)NS2(=O)=O` was tested. Which pKi (Carbonic anhydrase 4) did it give?
Answer: 5.85

Question: And the pKi (Carbonic anhydrase 7)?
Answer: 5.72

Question: What about the pKi (Carbonic anhydrase 9) of the same compound?
Answer: 6.43

Question: And the pKi (Carbonic anhydrase 1)?
Answer: 5.59

Question: And the pKi (Carbonic anhydrase 2)?
Answer: 5.66

Question: `O=C1Nc2ccc(O)cc2S(=O)(=O)N1` was tested. Which pKi (Carbonic anhydrase 4) did it give?
Answer: 6.34

Question: What about the pKi (Carbonic anhydrase 7) of the same compound?
Answer: 5.59

Question: What about the pKi (Carbonic anhydrase 9) of the same compound?
Answer: 7.06

Question: And the pKi (Carbonic anhydrase 1)?
Answer: 5.72

Question: And the pKi (Carbonic anhydrase 2)?
Answer: 5.52

Question: Which results are given for `O=C1Nc2c(ccc3ccccc23)S(=O)(=O)N1`?
Answer: pKi (Carbonic anhydrase 4): 5.57; pKi (Carbonic anhydrase 7): 5.40; pKi (Carbonic anhydrase 9): 7.22; pKi (Carbonic anhydrase 1): 5.68; pKi (Carbonic anhydrase 2): 6.32

Question: Which results are given for `O=C1Nc2ccc(C(=O)O)cc2S(=O)(=O)N1`?
Answer: pKi (Carbonic anhydrase 4): 7.12; pKi (Carbonic anhydrase 7): 5.30; pKi (Carbonic anhydrase 9): 7.01; pKi (Carbonic anhydrase 1): < 5.00; pKi (Carbonic anhydrase 2): 5.17

Question: What does the source list for `CN1C(=O)NS(=O)(=O)c2cc(Cl)ccc21`?
Answer: pKi (Carbonic anhydrase 4): 5.23; pKi (Carbonic anhydrase 7): 5.49; pKi (Carbonic anhydrase 9): 6.72; pKi (Carbonic anhydrase 1): < 5.00; pKi (Carbonic anhydrase 2): 5.63

Question: How did the pKi (Carbonic anhydrase 4) turn out when `O=C1Nc2c(Br)cccc2S(=O)(=O)N1` was run?
Answer: 6.07

Question: And the pKi (Carbonic anhydrase 7)?
Answer: 6.21

Question: What about the pKi (Carbonic anhydrase 9) of the same compound?
Answer: 7.13

Question: What about the pKi (Carbonic anhydrase 1) of the same compound?
Answer: 5.63

Question: What about the pKi (Carbonic anhydrase 2) of the same compound?
Answer: 6.28

Question: `O=C1Nc2c(F)cccc2S(=O)(=O)N1` was tested. Which pKi (Carbonic anhydrase 4) did it give?
Answer: 6.34

Question: And the pKi (Carbonic anhydrase 7)?
Answer: 6.90

Question: What about the pKi (Carbonic anhydrase 9) of the same compound?
Answer: 7.23

Question: What about the pKi (Carbonic anhydrase 1) of the same compound?
Answer: 6.26

Question: What about the pKi (Carbonic anhydrase 2) of the same compound?
Answer: 6.85

Question: How did the pKi (Carbonic anhydrase 1) turn out when `O=C1NS(=O)(=O)c2ccccc21` [SACCHARIN] was run?
Answer: < 5.00

Question: `O=C1Nc2ccc(F)cc2S(=O)(=O)N1` was tested. Which pKi (Carbonic anhydrase 4) did it give?
Answer: 6.15

Question: What about the pIC50 (PC-3 [1]) of the same compound?
Answer: 5.19

Question: What about the pIC50 (HCT-116 [2]) of the same compound?
Answer: 5.56

Question: And the pKi (Carbonic anhydrase 7)?
Answer: 6.36

Question: What about the pIC50 (A549 [3]) of the same compound?
Answer: 4.82

Question: What about the pKi (Carbonic anhydrase 9) of the same compound?
Answer: 7.72

Question: And the pIC50 (A549 [4])?
Answer: 4.74

Question: And the pKi (Carbonic anhydrase 1)?
Answer: 5.89

Question: And the pIC50 (WI-38)?
Answer: 3.90

Question: And the pIC50 (HCT-116 [5])?
Answer: 5.41

Question: And the pKi (Carbonic anhydrase 2)?
Answer: 6.27

Question: And the pIC50 (PC-3 [6])?
Answer: 4.92

Question: What about the Activity (HCT-116 [7]) of the same compound?
Answer: 42%

Question: What does the source list for `O=C1Nc2ccc(Cl)cc2S(=O)(=O)N1`?
Answer: pKi (Carbonic anhydrase 4): 5.76; pKi (Carbonic anhydrase 7): 5.93; pKi (Carbonic anhydrase 9): 7.24; pKi (Carbonic anhydrase 1): 5.73; pKi (Carbonic anhydrase 2): 5.94

Question: With `Cc1cccc2c1NC(=O)NS2(=O)=O` as the compound, how does the pKi (Carbonic anhydrase 4) read?
Answer: 5.91

Question: And the pKi (Carbonic anhydrase 7)?
Answer: 6.01

Question: What about the pKi (Carbonic anhydrase 9) of the same compound?
Answer: 7.19

Question: What about the pKi (Carbonic anhydrase 1) of the same compound?
Answer: 6.01

Question: And the pKi (Carbonic anhydrase 2)?
Answer: 6.84

Question: How did the pKi (Carbonic anhydrase 4) turn out when `O=C1Nc2c(Cl)cccc2S(=O)(=O)N1` was run?
Answer: 5.99

Question: And the pIC50 (PC-3 [1])?
Answer: 5.45

Question: What about the pIC50 (HCT-116 [2]) of the same compound?
Answer: 5.12

Question: And the pKi (Carbonic anhydrase 7)?
Answer: 6.41

Question: And the pIC50 (A549 [3])?
Answer: 5.13

Question: And the pKi (Carbonic anhydrase 9)?
Answer: 7.55

Question: And the pIC50 (A549 [4])?
Answer: 4.96

Question: And the pKi (Carbonic anhydrase 1)?
Answer: 6.03

Question: And the pIC50 (WI-38)?
Answer: 4.44

Question: And the pIC50 (HCT-116 [5])?
Answer: 5.28

Question: What about the pKi (Carbonic anhydrase 2) of the same compound?
Answer: 6.16

Question: And the pIC50 (PC-3 [6])?
Answer: 4.79

Question: With `Cc1ccc2c(c1)S(=O)(=O)NC(=O)N2` as the compound, how does the pKi (Carbonic anhydrase 4) read?
Answer: 6.05

Question: What about the pKi (Carbonic anhydrase 7) of the same compound?
Answer: 6.02

Question: And the pKi (Carbonic anhydrase 9)?
Answer: 7.34

Question: And the pKi (Carbonic anhydrase 1)?
Answer: 5.97

Question: And the pKi (Carbonic anhydrase 2)?
Answer: 6.06

Question: What does the source list for `Cc1cc(C)c2c(c1)NC(=O)NS2(=O)=O`?
Answer: pKi (Carbonic anhydrase 4): 5.57; pKi (Carbonic anhydrase 7): 5.75; pKi (Carbonic anhydrase 9): 6.39; pKi (Carbonic anhydrase 1): 5.72; pKi (Carbonic anhydrase 2): 5.53

Question: With `CN1C(=O)NS(=O)(=O)c2ccccc21` as the compound, how does the pKi (Carbonic anhydrase 4) read?
Answer: 5.46

Question: And the pIC50 (PC-3 [1])?
Answer: 4.77

Question: And the pIC50 (HCT-116 [2])?
Answer: 5.15

Question: What about the pKi (Carbonic anhydrase 7) of the same compound?
Answer: 5.12

Question: And the pIC50 (A549 [3])?
Answer: 4.79

Question: What about the pKi (Carbonic anhydrase 9) of the same compound?
Answer: 6.86

Question: And the pIC50 (A549 [4])?
Answer: 4.70

Question: What about the pKi (Carbonic anhydrase 1) of the same compound?
Answer: 5.47

Question: And the pIC50 (WI-38)?
Answer: 4.39

Question: What about the pIC50 (HCT-116 [5]) of the same compound?
Answer: 4.96

Question: And the pKi (Carbonic anhydrase 2)?
Answer: 6.07

Question: What about the pIC50 (PC-3 [6]) of the same compound?
Answer: 4.62

Question: How did the pKi (Carbonic anhydrase 4) turn out when `O=C1Nc2c(C(=O)O)cccc2S(=O)(=O)N1` was run?
Answer: 6.42

Question: What about the pKi (Carbonic anhydrase 7) of the same compound?
Answer: 5.55

Question: What about the pKi (Carbonic anhydrase 9) of the same compound?
Answer: 7.04

Question: And the pKi (Carbonic anhydrase 1)?
Answer: 5.24

Question: What about the pKi (Carbonic anhydrase 2) of the same compound?
Answer: 5.61
